pIC50: −log10 of the molar value.
Experiments:
[1] = target: VEGFR-2 kinase (Homo sapiens (Human), UniProt P35968); test: Assay of small molecular compounds for inhibiting the activity of VEGFR-2 kinase (LANCE TR-FRET); type: biochemical; settings: read-out: VEGFR2 IC50
Method in brief: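 LANCE TR-FRET with human VEGFR-2 (2× stock 0.5 nM) preincubated 30 min with compound (final 2500 to 0.042 nM, 11-point 3-fold), then ULight-JAK-1 (Tyr1023) peptide/ATP added (4× stocks 200 nM/40 μM). Reaction 60 min room temperature, 4% DMSO; IC50 from inhibition-rate curve.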

[2] = target: MER kinase (Homo sapiens (Human), UniProt Q12866); test: Assay of small molecular compounds for inhibiting the activity of MER kinase (LANCE TR-FRET); type: biochemical
Method in brief: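 LANCE TR-FRET readout of ULight-poly GT phosphorylation by MER kinase; compound final range 0.042-2500 nM, 3-fold steps, 5 min enzyme preincubation. Reaction 60 min at room temperature in the dark with substrate/ATP (4× at 200 nM/20 μM), 1% DMSO, then stopped and developed 60 min; IC50 by curve fit.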

[3] = tested on: Ba/F3-AXL cells; test: Assay for inhibiting the proliferation of Ba/F3-AXL cells (CCK-8); type: cell-based; settings: 72 hours of incubation, medium with 100 ng/mL hGas6, CCK-8
Description: The values were then imported into Graphpad Prism 5 software for curve fitting, and IC50 was calculated.

Chain of MER kinase (Q12866 21-999): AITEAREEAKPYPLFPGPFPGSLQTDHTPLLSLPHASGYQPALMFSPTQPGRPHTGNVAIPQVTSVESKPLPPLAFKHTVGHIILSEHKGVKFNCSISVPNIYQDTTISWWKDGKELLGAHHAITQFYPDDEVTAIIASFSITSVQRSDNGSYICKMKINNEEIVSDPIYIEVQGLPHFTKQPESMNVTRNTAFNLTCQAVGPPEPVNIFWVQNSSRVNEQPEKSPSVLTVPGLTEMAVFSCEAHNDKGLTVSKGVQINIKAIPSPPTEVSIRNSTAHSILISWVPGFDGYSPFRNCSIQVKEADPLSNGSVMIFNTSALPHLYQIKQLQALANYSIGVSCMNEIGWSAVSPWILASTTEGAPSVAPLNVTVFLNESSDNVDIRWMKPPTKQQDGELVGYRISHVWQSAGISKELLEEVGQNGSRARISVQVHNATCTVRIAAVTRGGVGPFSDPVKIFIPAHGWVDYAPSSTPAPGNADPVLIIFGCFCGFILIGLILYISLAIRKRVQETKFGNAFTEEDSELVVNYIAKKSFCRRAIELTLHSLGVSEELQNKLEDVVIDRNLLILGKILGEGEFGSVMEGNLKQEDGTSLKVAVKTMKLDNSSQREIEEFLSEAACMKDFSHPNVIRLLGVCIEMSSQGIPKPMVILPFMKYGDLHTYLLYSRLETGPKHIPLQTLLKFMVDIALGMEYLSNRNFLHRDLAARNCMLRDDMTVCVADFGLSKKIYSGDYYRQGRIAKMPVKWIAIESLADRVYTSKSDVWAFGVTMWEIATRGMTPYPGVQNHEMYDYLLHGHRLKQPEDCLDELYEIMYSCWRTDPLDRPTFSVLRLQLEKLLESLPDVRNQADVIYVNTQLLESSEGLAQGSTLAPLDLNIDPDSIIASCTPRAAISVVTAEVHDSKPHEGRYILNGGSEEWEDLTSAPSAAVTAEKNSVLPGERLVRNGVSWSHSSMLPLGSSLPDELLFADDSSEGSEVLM
Chain of VEGFR-2 kinase (P35968 20-1356): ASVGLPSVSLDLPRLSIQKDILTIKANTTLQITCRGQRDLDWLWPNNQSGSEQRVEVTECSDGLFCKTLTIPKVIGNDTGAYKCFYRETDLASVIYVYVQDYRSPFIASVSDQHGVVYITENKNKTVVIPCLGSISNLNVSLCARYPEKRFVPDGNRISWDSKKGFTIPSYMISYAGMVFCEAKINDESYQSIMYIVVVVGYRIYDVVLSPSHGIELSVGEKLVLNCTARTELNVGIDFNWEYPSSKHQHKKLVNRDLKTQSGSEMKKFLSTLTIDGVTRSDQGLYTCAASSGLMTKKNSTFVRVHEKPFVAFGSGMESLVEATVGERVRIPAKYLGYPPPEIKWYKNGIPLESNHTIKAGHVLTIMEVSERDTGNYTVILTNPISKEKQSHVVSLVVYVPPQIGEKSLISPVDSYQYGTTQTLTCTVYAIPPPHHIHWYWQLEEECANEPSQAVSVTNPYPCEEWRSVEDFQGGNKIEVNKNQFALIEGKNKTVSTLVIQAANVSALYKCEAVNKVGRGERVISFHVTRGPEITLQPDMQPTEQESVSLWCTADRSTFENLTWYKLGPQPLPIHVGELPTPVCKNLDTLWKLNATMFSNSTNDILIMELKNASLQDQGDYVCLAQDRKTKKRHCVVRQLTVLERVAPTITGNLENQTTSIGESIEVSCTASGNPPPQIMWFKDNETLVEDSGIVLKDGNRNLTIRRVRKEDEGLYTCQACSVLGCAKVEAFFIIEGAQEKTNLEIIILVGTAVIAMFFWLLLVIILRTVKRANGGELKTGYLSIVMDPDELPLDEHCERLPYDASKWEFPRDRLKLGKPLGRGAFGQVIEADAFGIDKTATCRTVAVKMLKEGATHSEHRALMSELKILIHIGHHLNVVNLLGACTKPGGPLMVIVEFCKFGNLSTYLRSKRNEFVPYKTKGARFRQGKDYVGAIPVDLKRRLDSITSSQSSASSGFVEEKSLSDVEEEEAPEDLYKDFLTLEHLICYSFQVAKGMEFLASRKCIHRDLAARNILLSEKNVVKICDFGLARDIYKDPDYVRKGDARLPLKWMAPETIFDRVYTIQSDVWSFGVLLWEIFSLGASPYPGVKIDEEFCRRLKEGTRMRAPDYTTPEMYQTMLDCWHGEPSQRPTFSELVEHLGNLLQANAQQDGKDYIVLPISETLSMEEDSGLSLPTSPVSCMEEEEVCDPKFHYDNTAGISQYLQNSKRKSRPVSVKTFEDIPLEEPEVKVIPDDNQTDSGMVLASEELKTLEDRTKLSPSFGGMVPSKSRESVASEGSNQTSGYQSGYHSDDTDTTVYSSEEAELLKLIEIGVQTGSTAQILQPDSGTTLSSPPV

SMILES	pIC50 [1]	pIC50 [2]	pIC50 [3]
CCn1cc(C(=O)Nc2ccc(Oc3ccnc4cc(OC)c5c(c34)OCCO5)c(F)c2)c(=O)n(-c2ccc(F)cc2)c1=O [Example 37, N-(3-fluoro-4-((5-methoxy-2,3-dihydro-[1,4]dioxino[2,3-f]quinolin-10-yl)oxy)phenyl)-3-(4-fluorophenyl)-1-ethyl-2,4-dioxo-1,2,3,4-tetrahydropyrimidine-5-carboxamide]	6.30 to 7.30	≥ 7.30	> 7.30
CCn1cc(C(=O)Nc2ccc(Oc3ccnc4cc(OCCCN5CCOCC5)c5c(c34)OCCO5)c(F)c2)c(=O)n(-c2ccc(F)cc2)c1=O [Example 38, N-(3-fluoro-4-((5-(3-morpholinopropoxy)-2,3-dihydro-[1,4]dioxino[2,3-f]quinolin-10-yl)oxy)phenyl)-3-(4-fluorophenyl)-1-ethyl-2,4-dioxo-1,2,3,4-tetrahydropyrimidine-5-carboxamide]	6.30 to 7.30	≥ 7.30	> 7.30
Cn1cc(C(=O)Nc2ccc(Oc3ccnc4cc(OCCCN5CCCCC5)c5c(c34)OCCO5)c(F)c2)c(=O)n(-c2ccc(F)cc2)c1=O [Example 39, N-(3-fluoro-4-((5-(3-(piperidin-1-yl)propoxy)-2,3-dihydro-[1,4]dioxino[2,3-f]quinolin-10-yl)oxy)phenyl)-3-(4-fluorophenyl)-1-methyl-2,4-dioxo-1,2,3,4-tetrahydropyrimidine-5-carboxamide]	6.30 to 7.30	≥ 7.30	> 7.30
CCn1cc(C(=O)Nc2ccc(Oc3ccnc4cc(OCCCN5CCCCC5)c5c(c34)OCCO5)c(F)c2)c(=O)n(-c2ccc(F)cc2)c1=O [Example 41, N-(3-fluoro-4-((5-(3-(piperidin-1-yl)propoxy)-2,3-dihydro-[1,4]dioxino[2,3-f]quinolin-10-yl)oxy)phenyl)-3-(4-fluorophenyl)-1-ethyl-2,4-dioxo-1,2,3,4-tetrahydropyrimidine-5-carboxamide]	6.30 to 7.30	≥ 7.30	> 7.30
COCCOc1cc2nccc(Oc3ccc(NC(=O)c4cn(C)c(=O)n(-c5ccc(F)cc5)c4=O)cc3F)c2c2c1OCCO2 [Example 42, N-(3-fluoro-4-((5-(2-methoxyethoxy)-2,3-dihydro-[1,4]dioxino[2,3-f]quinolin-10-yl)oxy)phenyl)-3-(4-fluorophenyl)-1-methyl-2,4-dioxo-1,2,3,4-tetrahydropyrimidine-5-carboxamide]	6.30 to 7.30	≥ 7.30	> 7.30
C=CCn1cc(C(=O)Nc2ccc(Oc3ccnc4cc(OC)c5c(c34)OCCO5)c(F)c2)c(=O)n(-c2ccc(F)cc2)c1=O [Example 100, N-(3-fluoro-4-((5-methoxy-2,3-dihydro-[1,4]dioxino[2,3-f]quinolin-10-yl)oxy)phenyl)-3-(4-fluorophenyl)-1-allyl-2,4-dioxo-1,2,3,4-tetrahydropyrimidine-5-carboxamide]	5.30 to 6.30	≥ 7.30	> 7.30
COc1cc2nccc(Oc3ccc(NC(=O)c4cn(CCF)c(=O)n(-c5ccc(F)cc5)c4=O)cc3F)c2c2c1OCCO2 [Example 101, N-(3-fluoro-4-((5-methoxy-2,3-dihydro-[1,4]dioxino[2,3-f]quinolin-10-yl)oxy)phenyl)-3-(4-fluorophenyl)-1-(2-fluoroethyl)-2,4-dioxo-1,2,3,4-tetrahydropyrimidine-5-carboxamide]	5.30 to 6.30	≥ 7.30	> 7.30
CCOc1ccn(-c2ccc(F)cc2)c(=O)c1C(=O)Nc1ccc(Oc2ccnc3cc(OCC4(N)CC4)c4c(c23)OCCO4)c(F)c1 [Example 105, N-(4-((5-((1-aminocyclopropyl)methoxy)-2,3-dihydro-[1,4]dioxino[2,3-f]quinolin-10-yl)oxy)-3-fluorophenyl)-4-ethoxy-1-(4-fluorophenyl)-2-oxo-1,2-dihydropyridine-3-carboxamide]	6.30 to 7.30	≥ 7.30	> 7.30
CCOc1ccn(-c2ccc(C)cc2)c(=O)c1C(=O)Nc1ccc(Oc2ccnc3cc(OC)c4c(c23)OCCO4)c(F)c1 [Example 112, N-(3-fluoro-4-((5-methoxy-2,3-dihydro-[1,4]dioxino[2,3-f]quinolin-10-yl)oxy)phenyl)-2-oxo-4-ethoxy-1-(4-methylphenyl)-1,2-dihydropyridin-3-carboxamide]	6.30 to 7.30	≥ 7.30	> 7.30

Further lines, results first:

pIC50 [1]	pIC50 [2]	pIC50 [3]	SMILES
6.30 to 7.30	≥ 7.30	> 7.30	CC(C)n1cc(C(=O)Nc2ccc(Oc3ccnc4cc(OCCCN5CCCCC5)c5c(c34)OCCO5)c(F)c2)c(=O)n(-c2ccc(F)cc2)c1=O [Example 40, N-(3-fluoro-4-((5-(3-(piperidin-1-yl)propoxy)-2,3-dihydro-[1,4]dioxino[2,3-f]quinolin-10-yl)oxy)phenyl)-3-(4-fluorophenyl)-1-isopropyl-2,4-dioxo-1,2,3,4-tetrahydropyrimidine-5-carboxamide]
5.30 to 6.30	≥ 7.30	> 7.30	CC(C)n1cc(C(=O)Nc2ccc(Oc3ccnc4cc(OCCCN5CCC(C)(O)CC5)c5c(c34)OCCO5)c(F)c2)c(=O)n(-c2ccc(F)cc2)c1=O [Example 94, N-(3-fluoro-4-((5-(3-(4-methyl-4-hydroxypiperidin-1-yl)propoxy)-2,3-dihydro-[1,4]dioxino[2,3-f]quinolin-10-yl)oxy)phenyl)-3-(4-fluorophenyl)-1-isopropyl-2,4-dioxo-1,2,3,4-tetrahydropyrimidine-5-carboxamide]
5.30 to 6.30	≥ 7.30	> 7.30	COCCN(C)CCCOc1cc2nccc(Oc3ccc(NC(=O)c4cn(C(C)C)c(=O)n(-c5ccc(F)cc5)c4=O)cc3F)c2c2c1OCCO2 [Example 95, N-(3-fluoro-4-((5-(3-((2-methoxyethyl)(methyl)amino)propoxy)-2,3-dihydro-[1,4]dioxino[2,3-f]quinolin-10-yl)oxy)phenyl)-3-(4-fluorophenyl)-1-isopropyl-2,4-dioxo-1,2,3,4-tetrahydropyrimidine-5-carboxamide]
5.30 to 6.30	≥ 7.30	> 7.30	CC(C)n1cc(C(=O)Nc2ccc(Oc3ccnc4cc(OCCCN(C)C5CCC5)c5c(c34)OCCO5)c(F)c2)c(=O)n(-c2ccc(F)cc2)c1=O [Example 96, N-(3-fluoro-4-((5-(3-((cyclobutyl)(methyl)amino)propoxy)-2,3-dihydro-[1,4]dioxino[2,3-f]quinolin-10-yl)oxy)phenyl)-3-(4-fluorophenyl)-1-isopropyl-2,4-dioxo-1,2,3,4-tetrahydropyrimidine-5-carboxamide]
5.30 to 6.30	≥ 7.30	> 7.30	Cn1cc(C(=O)Nc2ccc(Oc3ccnc4cc(OCCCN5CCOCC5)c5c(c34)OCCO5)cc2Cl)c(=O)n(-c2ccc(F)cc2)c1=O [Example 98, N-(2-chloro-4-((5-(3-morpholinopropoxy)-2,3-dihydro-[1,4]dioxino[2,3-f]quinolin-10-yl)oxy)phenyl)-3-(4-fluorophenyl)-1-methyl-2,4-dioxo-1,2,3,4-tetrahydropyrimidine-5-carboxamide]
5.30 to 6.30	≥ 7.30	> 7.30	COc1cc2nccc(Oc3ccc(NC(=O)c4cn(CCCO)c(=O)n(-c5ccc(F)cc5)c4=O)cc3F)c2c2c1OCCO2 [Example 99, N-(3-fluoro-4-((5-methoxy-2,3-dihydro-[1,4]dioxino[2,3-f]quinolin-10-yl)oxy)phenyl)-3-(4-fluorophenyl)-1-(3-hydroxypropyl)-2,4-dioxo-1,2,3,4-tetrahydropyrimidine-5-carboxamide]
< 5.30	≥ 7.30	< 5.30	COc1cc2nccc(Oc3ccc(NC(=O)c4cn(CC(=O)O)c(=O)n(-c5ccc(F)cc5)c4=O)cc3F)c2c2c1OCCO2 [Example 104, 2-(5-((3-fluoro-4-((5-methoxy-2,3-dihydro-[1,4]dioxino[2,3-f]quinolin-10-yl)oxy)phenyl)carbamoyl)-3-(4-fluorophenyl)-2,4-dioxo-3,4-dihydropyrimidin-1(2H)-yl)acetic acid]
< 5.30	≥ 7.30	> 7.30	CC(C)n1cc(C(=O)Nc2ccc(Oc3ccnc4cc(OCC5(N)CC5)c5c(c34)OCCO5)c(F)c2)c(=O)n(-c2ccc(F)cc2)c1=O [Example 106, N-(3-fluoro-4-((5-((1-aminocyclopropyl)methoxy)-2,3-dihydro-[1,4]dioxino[2,3-f]quinolin-1 0-yl)oxy)phenyl)-3-(4-fluorophenyl)-1-isopropyl-2,4-dioxo-1,2,3,4-tetrahydropyrimidine-5-carboxamide]
6.30 to 7.30	≥ 7.30	> 7.30	CCOc1ccn(-c2ccc(Cl)cc2)c(=O)c1C(=O)Nc1ccc(Oc2ccnc3cc(OC)c4c(c23)OCCO4)c(F)c1 [Example 113, N-(3-fluoro-4-((5-methoxy-2,3-dihydro-[1,4]dioxino[2,3-f]quinolin-10-yl)oxy)phenyl)-2-oxo-4-ethoxy-1-(4-chlorophenyl)-1,2-dihydropyridin-3-carboxamide]
6.30 to 7.30	≥ 7.30	> 7.30	CCOc1ccn(-c2cccc(F)c2)c(=O)c1C(=O)Nc1ccc(Oc2ccnc3cc(OC)c4c(c23)OCCO4)c(F)c1 [Example 114, N-(3-fluoro-4-((5-methoxy-2,3-dihydro-[1,4]dioxino[2,3-f]quinolin-10-yl)oxy)phenyl)-2-oxo-4-ethoxy-1-(3-fluorophenyl)-1,2-dihydropyridin-3-carboxamide]
